Source: patent publication US20030129168A1, “Expression of proteins for treating asthma via ligand mediated activation of their encoding genes” (ARIAD Gene Therapeutics, Inc., priority 1996, published 2003)

Columns and labels:
NFAT = assay: SEAP reporter activation by cross-linking chimeric receptor TAC/TAC/Z (TTZ) in TAg Jurkat cells; type: cell-based, human; details: addition of 1 ng/ml FK506; TTZ-transfected TAg Jurkat cells on bound anti-TAC mAb
From the text: The plasmid pSXNeo/IL2 (IL2-SX) (FIG. 1 of PCT/US94/01617), which contains the placental secreted alkaline phosphatase gene under the control of human IL-2 promoter (−325 to +47; MCB(86) 6, 3042), and related plasmid variants (i.e. NFAT-SX, NFB-SX, OAP/Octl-SX, and AP-1-SX) in which the reporter gene is under the transcriptional control of the minimal IL-2 promoter (−325 to −294 and −72 to +47) combined with synthetic oligomers containing various promoter elements (i.e. NFAT, NKB, OAP/Oct-1, and AP1, respectively), were made by three piece ligations of 1) pPL/SEAP (Berger, et al., Gene (1988) 66,1) cut with Sspl and HindIII; 2) pSV2/Neo (Southern and Berg, J. Mol. Appl. Genet. (1982) 1, 332) cut with NdeI, blunted with Kilenow, then cut with PvuI; and 3) various promoter-containing plasmids (i.e. NFAT-CD8, B-CD8, cxl2lacZ-Oct-1, AP1-LUCIF3H, or cx151L2) (described below) cut with PvuI and HindIII. NFAT-CD8 contains 3 copies of the NFAT-binding site (−286 to −257; Genes and Dev. (1990) 4, 1823) and cx121acZ-Oct contains 4 copies of the OAP/Oct-1/(ARRE-1) binding site (MCB, (1988) 8, 1715) from the human IL-2 enhancer; B-CD8 contains 3 copies of the NFB binding site from the murine light chain (EMBO (1990) 9,4425) and AP1-LUCIF3H contains 5 copies of the AP-1 site (5′-[…]-3′) from the metallothionen promoter. […]

[1] = test system: chimeric FKBP12/CD3 (1FK3) receptor; assay: FK1012A activation of chimeric FKBP12/CD3 (1FK3) receptor, NFAT-SX SEAP reporter; type: cell-based; details: addition of 2 ng/ml FK506
Experimental: 5 μg of the eukaryotic expression vector, pBJ5, (based on pCDL-SR with a polylinker inserted between the 16S splice site and the poly A site), containing the chimeric receptor (1FK3), was co-transfected with 4 μg of the NFAT-inducible secreted alkaline phosphatase reporter plasmid, NFAT-SX. As a control, 5 μg of pBJ5 was used, instead of 1FK3/pBJ5, in a parallel transfection. After 24 hours, aliquots of each transfection containing approximately 10^5 cells were incubated with log dilutions of the drug FK1012A, as indicated. As a positive control and to control for transfection efficiency, ionomycin (1 μM) and PMA (25 ng/ml) were added to aliquots from each transfection. After an additional 14 hour incubation, the supernatants were assayed for alkaline phosphatase activity and these activities were expressed relative to that of the positive control samples. […] Each data point obtained was the average of two samples and the experiment was performed several times with similar results.

[2] = test system: myristoylated chimeric CD3/FKBP12 (MZF3E) receptor; assay: FK1012 activation of myristoylated chimeric CD3/FKBP12 (MZF3E) receptor, NFAT SEAP reporter in Jurkat T cells; type: cell-based, human; details: addition of 1 ng/ml FK506
From the text: In an illustrative case, this was accomplished by creating an intracellular receptor comprised of a small fragment of Src sufficient for posttranslational myristoylation (M), the cytoplasmic tail of zeta (Z; a component of the […] was also used), three consecutive FKBP12s (F3) and a flu epitope tag (E). […] The promoter of the SEAP reporter gene was constructed to be transcriptionally activated by nuclear factor of activated T cells (NFAT), which is assembled in the nucleus following TCR-signaling.
Specifically, 5 μg of the eukaryotic expression vector, pBJ5, containing a myristoylated chimeric receptor was co-transfected with 4 μg NFAT-SX. MZE, MZF1E, MZF2E and MZF3E contain 0, 1, 2, or 3 copies of FKBP12, respectively, downstream of a myristoylated CD3 cytoplasmic domain (see FIG. 2 of PCT/US94/01617). As a control, 5 μg of pBJ5 was used in a parallel transfection. After 24 hours, aliquots of each transfection containing approximately 10^5 cells were incubated with log dilutions of the drug, FK1012B, as indicated. As a positive control and to control for transfection efficiency, ionomycin (1 μm) and PMA (25 ng/ml) were added to aliquots from each transfection. After an additional 12 hour incubation, the supernatants were assayed for alkaline phosphatase activity and these activities were expressed relative to that of the positive control samples. […] Compare FIGS. 7 and 8 of PCT/US94/01617.

## C=CC[C@@H]1/C=C(\C)C[C@H](C)C[C@H](OC)[C@H]2O[C@@](O)(C(=O)C(=O)N3CCCC[C@H]3C(=O)O[C@H](/C(C)=C/[C@@H]3CC[C@@H](O)[C@H](OC)C3)[C@H](C)[C@@H](O)CC1=O)[C@H](C)C[C@@H]2OC [FK506]
NFAT
  alkaline phosphatase activity due to NFAT: dropped all activity due to NFAT to background levels
[1]
  alkaline phosphatase activity (FK1012A stimulations): dropped all stimulations to background levels
[2]
  alkaline phosphatase activity (FK1012B stimulations): dropped all stimulations to near background levels
